Converted amounts (≈) assume the structure as drawn. Like-named read-outs stand apart in the source and are kept apart here. Where a SMILES comes first, the peptide text is derived from it. [ ]: non-standard residue; d: D form. The star is where a group is joined. boroAla((+)-pinanediol) = C[C@H](N*)B1O[C@@H]2C[C@@H]3C[C@@H](C3(C)C)[C@]2(C)O1; Benzenesulfonyl(4-Ph) = O=S(=O)(c1ccc(-c2ccccc2)cc1)*; Benzoyl(4-(4-Cl-Ph)) = O=C(c1ccc(-c2ccc(Cl)cc2)cc1)*; Propanoyl(3-decylamino) = CCCCCCCCCCNCCC(=O)*; AlaCOCOOMe = COC(=O)C(=O)[C@H](C)N*; NDecylGly = CCCCCCCCCCNCC(=O)O; X20 = CC(N*)C(=O)C(F)(F)C(=O)O; X37 = C[C@H](N*)B1OCCNCCO1; X17 = CCCCCCCCCNCCCC(=O)*; X7 = C[C@H](N*)C(=O)C1CO1; boroAla = C[C@H](N*)B(O)O; Dab = NCC[C@H](N)C(=O)O; X24 = CCCCCCCCNCCC(=O)*; Dap = NC[C@H](N)C(=O)O
Columns and labels:
[1] = tested on: Escherichia coli strain MC4100 IMP-4213, which harbors an LptD mutation; conditions: E. coli MC4100 IMP-4213; 35° C., 22 hours
Protocol: (§1) In vitro antimicrobial activity of each compound was determined by measuring minimal inhibitor concentrations (MICs) using the broth micro-dilution technique as approved by the Clinical and Laboratory Standards Institute (CLSI). Antibacterial activity was measure against two strains of bacteria: 1) methicillin resistant Staphylococcus aureus (MRSA) strain USA300 (NRS384) and 2) Escherichia coli strain MC4100 IMP-4213, which harbors an LptD mutation. Bacterial inocula were prepared by scraping cells into 1 mL of testing media (cation adjusted Mueller Hinton Broth supplemented with 0.002% v/v Tween-80) and diluting to a final OD600nm of 0.01.
(§2) Test compounds were prepared in DMSO at a concentration of 10 mg/ml. These compound stocks were diluted into testing media at a concentration of 64 μg/ml and 9 serial 1:2 dilutions were made in the same media, in 96-well U bottom microtiter dishes. Bacterial inocula were added to the two fold serial dilutions of test compounds to a final density of OD OD600nm of 0.0005 and incubated stationarily at 35° C. for 22 hours, after which the plates were examined visually.

[2] = tested on: methicillin resistant Staphylococcus aureus (MRSA) strain USA300 (NRS384)
Protocol: as §1, §2

[3] = MRSA USA300 (NRS384), 35° C., 22 hours

Compound | MIC (μg/mL) E. coli [1] [µg/mL] | MIC (μg/mL) S. aureus ([2]; USA300, 22 h) [µg/mL] | MIC (μg/mL) S. aureus [2, 3] [µg/mL]
C[C@H](NC(=O)[C@H](CCCCN)NC(=O)[C@H](C)NC(=O)[C@@H](NC(=O)[C@H](CCN)NC(=O)c1ccc(-c2ccc(Cl)cc2)cc1)[C@@H](C)O)B1O[C@@H]2C[C@@H]3C[C@@H](C3(C)C)[C@]2(C)O1 [Compound 112] ({Benzoyl(4-(4-Cl-Ph))}-[Dab]TAK-{boroAla((+)-pinanediol)}) | 64 (≈ 76.3 µM) | 1 (≈ 1.19 µM) | 
C[C@H](NC(=O)[C@H](CCCCN)NC(=O)[C@H](C)NC(=O)[C@@H](NC(=O)[C@H](CCN)NC(=O)c1ccc(-c2ccc(Cl)cc2)cc1)[C@@H](C)O)B1OCCNCCO1 [Compound 131] ({Benzoyl(4-(4-Cl-Ph))}-[Dab]TAK-X37) |  |  | 1 (≈ 1.29 µM)
CCCCc1ccc(-c2ccc(CN(CCCN)C(=O)N[C@H](C(=O)N[C@@H](C)C(=O)N[C@@H](CCCCN)C(=O)N[C@@H](C)B3OC4C[C@@H]5C[C@@H](C5(C)C)[C@]4(C)O3)[C@@H](C)O)cc2)cc1 (some centres unmarked) [Compound 132] | 32 (≈ 37.8 µM) |  | 5.7 (≈ 6.74 µM)
C[C@H](NC(=O)[C@H](CCCCN)NC(=O)[C@H](C)NC(=O)[C@@H](NC(=O)[C@H](CCCCN)NS(=O)(=O)c1ccc(-c2ccccc2)cc1)[C@@H](C)O)B1O[C@@H]2C[C@@H]3C[C@@H](C3(C)C)[C@]2(C)O1 [Compound 133] ({Benzenesulfonyl(4-Ph)}-KTAK-{boroAla((+)-pinanediol)}) | >64 |  | 8 (≈ 9.22 µM)
CC(NC(=O)[C@H](CCCCN)NC(=O)[C@H](C)NC(=O)[C@@H](NC(=O)[C@H](CCN)NC(=O)c1ccc(-c2ccc(Cl)cc2)cc1)[C@@H](C)O)C(=O)C(F)(F)C(=O)O (some centres unmarked) [Compound 215] ({Benzoyl(4-(4-Cl-Ph))}-[Dab]TAK-X20) | 64 (≈ 81.8 µM) | 6.7 (≈ 8.57 µM) | 
C[C@H](NC(=O)[C@@H](NC(=O)[C@H](CCN)NC(=O)c1ccc(-c2ccc(Cl)cc2)cc1)[C@@H](C)O)C(=O)N[C@@H](CCCCN)C(=O)N[C@@H](C)C(=O)C1CO1 (some centres unmarked) [Compound 216] ({Benzoyl(4-(4-Cl-Ph))}-[Dab]TAK-X7) | 16 (≈ 21.9 µM) | 1 (≈ 1.37 µM) | 
CCCCCCCCCCNCCC(=O)N[C@@H](CCCCN)C(=O)N[C@H](C(=O)N[C@@H](C)C(=O)N[C@@H](CCCCN)C(=O)N[C@@H](C)B(O)O)[C@@H](C)O [Compound 218] ({Propanoyl(3-decylamino)}-KTAK-boroAla) | >64 | 2.1 (≈ 2.88 µM) | 
CCCCCCCCCCNCCC(=O)N[C@@H](CCN)C(=O)N[C@H](C(=O)N[C@@H](C)C(=O)N[C@@H](CCCCN)C(=O)N[C@@H](C)B(O)O)[C@@H](C)O [Compound 219] ({Propanoyl(3-decylamino)}-[Dab]TAK-boroAla) | 16 (≈ 22.8 µM) | 1 (≈ 1.43 µM) | 
CCCCCCCCCCNCCC(=O)N[C@@H](CN)C(=O)N[C@H](C(=O)N[C@@H](C)C(=O)N[C@@H](CCCCN)C(=O)N[C@@H](C)B(O)O)[C@@H](C)O [Compound 220] ({Propanoyl(3-decylamino)}-[Dap]TAK-boroAla) | 16 (≈ 23.3 µM) | 1 (≈ 1.46 µM) | 
CCCCCCCCCCNCCC(=O)N[C@@H](CCCCN)C(=O)N[C@H](C(=O)N[C@@H](C)C(=O)N[C@@H](CC(N)=O)C(=O)N[C@@H](C)B(O)O)[C@@H](C)O [Compound 221] ({Propanoyl(3-decylamino)}-KTAN-boroAla) | 64 (≈ 89.5 µM) | 4 (≈ 5.6 µM) | 
CCCCCCCCCCNCCC(=O)N[C@@H](CN)C(=O)N[C@H](C(=O)N[C@@H](C)C(=O)N[C@@H](CC(N)=O)C(=O)N[C@@H](C)B(O)O)[C@@H](C)O [Compound 222] ({Propanoyl(3-decylamino)}-[Dap]TAN-boroAla) | 8 (≈ 11.9 µM) | 2 (≈ 2.97 µM) | 
CCCCCCCCCCNCCC(=O)N[C@@H](CCCCN)C(=O)N[C@@H](CCC(=O)O)C(=O)N[C@@H](C)C(=O)N[C@@H](CCCCN)C(=O)N[C@@H](C)B1O[C@@H]2C[C@@H]3C[C@@H](C3(C)C)[C@]2(C)O1 [Compound 223] ({Propanoyl(3-decylamino)}-KEAK-{boroAla((+)-pinanediol)}) | 64 (≈ 71.8 µM) |  | 4 (≈ 4.49 µM)
CCCCCCCCCCNCCC(=O)N[C@@H](CCCCN)C(=O)N[C@@H](CC(=O)O)C(=O)N[C@@H](C)C(=O)N[C@@H](CCCCN)C(=O)N[C@@H](C)B1O[C@@H]2C[C@@H]3C[C@@H](C3(C)C)[C@]2(C)O1 [Compound 224] ({Propanoyl(3-decylamino)}-KDAK-{boroAla((+)-pinanediol)}) | >64 |  | 11 (≈ 12.5 µM)
CCCCCCCCCCNCCC(=O)N[C@@H](CCCCN)C(=O)N[C@H](C(=O)N[C@@H](C)C(=O)N[C@@H](Cc1cnc[nH]1)C(=O)N[C@@H](C)B1O[C@@H]2C[C@@H]3C[C@@H](C3(C)C)[C@]2(C)O1)[C@@H](C)O [Compound 225] ({Propanoyl(3-decylamino)}-KTAH-{boroAla((+)-pinanediol)}) | 16 (≈ 18.3 µM) |  | 2 (≈ 2.29 µM)
CCCCCCCCNCCC(=O)N[C@@H](CCCCN)C(=O)N[C@H](C(=O)N[C@@H](C)C(=O)N[C@@H](CCCCN)C(=O)N[C@@H](C)B1O[C@@H]2C[C@@H]3C[C@@H](C3(C)C)[C@]2(C)O1)[C@@H](C)O [Compound 226] (X24-KTAK-{boroAla((+)-pinanediol)}) | >64 |  | 6.3 (≈ 7.55 µM)
CCCCCCCCCNCCCC(=O)N[C@@H](CCCCN)C(=O)N[C@H](C(=O)N[C@@H](C)C(=O)N[C@@H](CCCCN)C(=O)N[C@@H](C)B1O[C@@H]2C[C@@H]3C[C@@H](C3(C)C)[C@]2(C)O1)[C@@H](C)O [Compound 227] (X17-KTAK-{boroAla((+)-pinanediol)}) | 64 (≈ 74.2 µM) | 2 (≈ 2.32 µM) | 
CCCCCCCCCNCCCC(=O)N[C@@H](CCCCN)C(=O)N[C@H](C(=O)N[C@@H](C)C(=O)N[C@@H](CCCCN)C(=O)N[C@@H](C)B(O)O)[C@@H](C)O [Compound 228] (X17-KTAK-boroAla) | >64 | 2 (≈ 2.74 µM) | 
CCCCCCCCCCNCC(=O)N[C@H](C(=O)N[C@@H](C)C(=O)N[C@@H](CCCCN)C(=O)N[C@@H](C)B1O[C@@H]2C[C@@H]3C[C@@H](C3(C)C)[C@]2(C)O1)[C@@H](C)O [Compound 229] (H-[NDecylGly]TAK-{boroAla((+)-pinanediol)}) | 64 (≈ 88.8 µM) |  | 1.3 (≈ 1.8 µM)
CCCCCCCCCCNCC(=O)N[C@@H](CCCCN)C(=O)N[C@H](C(=O)N[C@@H](C)C(=O)N[C@@H](CCCCN)C(=O)N[C@@H](C)B1O[C@@H]2C[C@@H]3C[C@@H](C3(C)C)[C@]2(C)O1)[C@@H](C)O [Compound 230] (H-[NDecylGly]KTAK-{boroAla((+)-pinanediol)}) | 32 (≈ 37.7 µM) |  | 0.36 (≈ 0.424 µM)
CCCCCCCCCCNCCC(=O)N[C@@H](CCCCN)C(=O)N[C@H](C(=O)N[C@@H](C)C(=O)N[C@@H](CCN)C(=O)N[C@@H](C)C(=O)C(=O)OC)[C@@H](C)O [Compound 254] ({Propanoyl(3-decylamino)}-KTA[Dab]-AlaCOCOOMe) |  | 16 (≈ 21.5 µM) | 

Source: US20160194358A1, “LINEAR PEPTIDE ANTIBIOTCS” (priority 2013, published 2016)
